Laboratory results as given in patent publication US20040119048A1, “Process of making aqueous perborate bleach composition” (Unilever Home & Personal Care USA, Divison of Conopco, Inc., priority 2002, published 2004).

Assay: Iterative determination of perborate solubility in water and polyol/water (visual appearance, pH)
Format: physicochemical
Procedure: An iterative process was used to determine the extent of perborate solubilty in water and polyol/water. 1.5 g of Na perborate monohydrate was added either to 100 g of water (Table 1A) or to 90 g water and 10 g sorbitol (70% active) (Table 1B). The mixture was stirred until all of sodium perborate monohydrate was dissolved. A 0.5 g aliquot of sodium perborate monohydrate was then added to the solution while stirring and visually monitored to see if all the added sodium perborate monohydrate dissolves. If the aliquot dissolved, another 0.5 g of sodium perborate monohydrate would be added. This procedure was continued until the added perborate no longer appeared to dissolve.

Structure (SMILES): O.O=BO[O-].[Na+] [Sodium Perborate monohydrate, sodium perborate monohydrate]
- solubility in water in the presence of polyol (90 g water + 10 g sorbitol (70%)): up to 8.5 g
- increase of perborate solubility by polyol (aqueous environment, with polyol vs without): about 400%
